Tests used:
N2 WT C. elegans [1] = test: Lipofuscin autofluorescence measurement, N2; format: in vivo; details: 100 μM or 500 μM SA versus vehicle control; p<0.01
Source text: (§1) To quantify this, the present inventors chose both a biochemical endpoint (lipofuscin autofluorescence) and a behavioral measure (pharyngeal pumping) that change predictably with aging and are associated with healthspan. The accumulation in the nematode intestinal epithelium of autofluorescent lipofuscin granules, a heterogeneous mixture of oxidized and crosslinked lipids and proteins and advanced glycation end products, is a known conserved phenomenon observed to increase with age. Visualization of lipofuscin granules is often used as an age-related assessment of healthspan. Lipofuscin autofluorescence were quantified over time (every 5 days) in N2 adult nematodes (10-20 per colony) in the presence of increasing doses of SA. SA response profiles were generated from integrating the area-under-the-curve (AUC) of fluorescent intensity as a function of time (FIG. 1C). […] For a behavioral/functional measurement of health, pharyngeal pumping rates were quantified. […] Pharyngeal pumping rates quantified in WT N2 worms established on OP50-seeded NGM agar plates with increasing concentrations of SA. The frequency of pharyngeal pumping was measured and recorded every fifth day as the animals aged.
Synchronized late L4/early young adult worms were plated on FUDR containing SA-OP50-seeded NGM plates and worms were maintained at 20° C. […] The fluorescence was calculated using ImageJ software.

N2 WT C. elegans [2] = test: Pharyngeal pumping rate, N2; format: in vivo; details: increasing concentrations of SA, measured every fifth day; p<0.05
Source text: as §1, with “SA.” for “SA. SA response profiles were generated from integrating the area-under-the-curve (AUC) of fluorescent intensity as a function of time (FIG. 1C).”
C. elegans pharyngeal pumping rate assays were performed on 60-mm agar plates with bacterial lawns at room temperature. […] The number of contractions in the terminal bulb of the pharynx was counted for 20 s and then plotted.

VC199 SIR-2.1 mutants = test: Oxygen consumption rate of whole worms, VC199; format: in vivo, C. elegans; details: whole worms over several days; p>0.05
Source text: Mitochondria lie at the center of aging biology, playing crucial roles in energy production, carbon substrate metabolism, apoptosis regulation, and redox balance and signaling. Since sirtuins play a major role in regulating mitochondrial function, the present inventors next wanted to investigate whether SA was exerting any of its effects via protection of mitochondrial processes. To investigate SA's effects on mitochondrial respiration, the present inventors administered SA to WT N2 (FIG. 5A) and non-functional SIR-2.1 mutant worms (FIG. 5B) and measured oxygen consumption rate (OCR) in whole worms over several days. […] The present inventors also examined the effect of SA treatment on mitochondrial DNA (mtDNA) integrity.
Oxygen consumption rate for whole C. elegans was measured using a Seahorse Bioscience XF^e96 Analyzer. Worms were harvested from Day 0, 2, and 15 colonies maintained on FUDR containing SA-OP50-seeded NGM plates by washing in M9 medium, followed by floatation on an ice-cold 60% w/v sucrose gradient to segregate clean bacteria-free adult worms from bacterial debris. Worms were seeded at 1,000 worms/well in M9. After 20 min equilibration, a 2-min measurement was performed to obtain basal OCR for all experimental conditions and strains.

[3] = tested on: VC199 non-functional SIR-2.1 mutants; test: Real-time RT-PCR of ets-7, VC199; format: in vivo, C. elegans; details: highest dose of SA, Day 15 VC199; p<0.01
Source text: First, to validate the microarray results, the present inventors performed real-time RT-PCR on four genes, siah-1, sma-4, F13D12.6, and ets-7 (FIG. 6B). […] Messenger RNA levels for siah-1 and sma-4 were decreased by nearly 25%, as well as F13D12.6 and ets-7 were increased by nearly 25% by SA administration (p<0.05). Pathway Analysis using Gene Ontology (GO) with WEB-based Gene SeT Analysis Toolkit (WEBGESTALT <http://bioinfo.vanderbilt.edu/webgestalt/>) highlighted the metabolic process, lipid metabolic process, proteolysis pathways among many others as being altered favorably by the administration of SA (see Supplemental Data). From the array data confirmed by RT-PCR, the present inventors identified the ETS class transcription factor ETS-7 as a protein of interest. ETS factors are known to be involved in regulating lipid metabolism and regulate lifespan in both Drosophila melanogaster and C. elegans. […] In order to test this, the present inventors carried out real-time RT-PCR quantification of ets-7 in non-functional SIR-2.1 mutant nematodes treated with increasing doses of SA (FIG. 6E).
Total RNA was isolated via the Trizol method, as described previously. […] Quantitative real time PCR (Bio-Rad) was conducted using TaqMan Gene Expression Assay Probes (Life Technologies) for each gene. […]

[4] = tested on: intact cells exposed to hydrogen peroxide; details: SA pre-treatment, vehicle control 95% cell death; cited from earlier work
mice [5] = details: administering SA in mice; cited from earlier work
mice [6] = details: administering SA in mice; cited from earlier work; remark: listed apart in the source

NCc1ccccc1O [SA, salicylamine]
age-associated lipofuscin accumulation (AUC of autofluorescence over time) (N2 WT C. elegans [1]): significant reduction | age-associated decline in pharyngeal pumping rate (N2 WT C. elegans [2]): dose-dependent protection | mitochondrial oxygen consumption rate (OCR) (VC199 SIR-2.1 mutants): no effect | increase in ets-7 mRNA expression [3]: 442% | occurrence in cell death [4]: 5% | age-related loss of working memory (mice [5]): prevents the age-related loss of working memory | development of angiotensin II-induce hypertension (mice [6]): prevents
